Where a name gives a salt, the structure may show the parent alone.
Target: CK2A1 (CK2α/β) (Homo sapiens, UniProt P68400)
Assay: CK2 kinase assay, CK2A1 (CK2α/β)
Assay type: biochemical
Conditions: Table A; read-out: CK2A1 (CK2α/β) (IC50)

Sequence of CK2A1 (CK2α/β) (P68400 whole entry, species assumed): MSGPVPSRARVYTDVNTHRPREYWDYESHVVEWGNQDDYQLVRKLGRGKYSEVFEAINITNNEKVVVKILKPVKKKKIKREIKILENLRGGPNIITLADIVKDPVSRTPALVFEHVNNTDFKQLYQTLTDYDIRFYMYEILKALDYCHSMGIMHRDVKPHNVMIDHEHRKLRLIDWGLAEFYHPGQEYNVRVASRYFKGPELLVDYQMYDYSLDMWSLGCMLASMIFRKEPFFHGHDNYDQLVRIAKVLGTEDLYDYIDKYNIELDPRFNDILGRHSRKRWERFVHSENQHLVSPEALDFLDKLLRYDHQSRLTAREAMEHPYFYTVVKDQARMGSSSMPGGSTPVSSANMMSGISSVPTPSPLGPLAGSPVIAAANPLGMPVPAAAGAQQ
Sequence of CK2A1 (CK2α/β) (P67870 whole entry partner, species assumed): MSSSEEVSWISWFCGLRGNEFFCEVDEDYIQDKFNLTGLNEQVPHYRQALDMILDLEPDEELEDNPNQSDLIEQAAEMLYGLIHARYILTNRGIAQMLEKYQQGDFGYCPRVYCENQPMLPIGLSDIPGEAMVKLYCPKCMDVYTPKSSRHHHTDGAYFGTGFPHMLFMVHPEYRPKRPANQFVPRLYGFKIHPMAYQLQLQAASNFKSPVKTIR

Compound	IC50
N#Cc1cc(Nc2nc(NC3CC3)c3ncc(C#N)n3n2)c(Cl)c(N2CCN(C(=O)CCn3ccnc3)CC2)c1 [Example 98]	0.36 nM
N#CCC(=O)N1CCC(c2cc(C#N)cc(Nc3nc(NC4CC4)c4ncc(C#N)n4n3)c2Cl)CC1 [Example 230, 2-((2-chloro-5-cyano-3-(1-(cyanoacetyl)-4-piperidinyl)phenyl)amino)-4-(cyclopropylamino)imidazo[2,1-f][1,2,4]triazine-7-carbonitrile]	1.04 nM
CO[C@@H]1CN(c2cc(C#N)cc(Nc3nc(NC4CC4)c4ncc(C#N)n4n3)c2Cl)CC[C@H]1N (racemic) [Example 188, (+/−)-2-((3-((3R,4R)-4-amino-3-methoxypiperidin-1-yl)-2-chloro-5-cyanophenyl)amino)-4-(cyclopropylamino)imidazo[2,1-f][1,2,4]triazine-7-carbonitrile]	200 nM
C[C@]1(N)CCN(c2cc(C#N)cc(Nc3nc(NC4CC4)c4ncc(C#N)n4n3)c2Cl)C[C@@H]1O [Example 36, 2-((3-((3S,4S)-4-amino-3-hydroxy-4-methyl-1-piperidinyl)-2-chloro-5-cyanophenyl)amino)-4-(cyclopropylamino)imidazo [2,1-f][1,2,4]triazine-7-carbonitrile]	0.32 nM
N#Cc1cnc2c(NC3CC3)nc(Nc3cc(C(F)F)cc(N4CCN(C5CCOCC5)CC4)c3Cl)nn12 [Example 247, 2-((2-chloro-5-(difluoromethyl)-3-(4-(tetrahydro-2H-pyran-4-yl)-1-piperazinyl)phenyl)amino)-4-(cyclopropylamino)imidazo[2,1-f][1,2,4]triazine-7-carbonitrile]	1.74 nM
CN1C(C)(C)CC(NC2CCN(c3cc(C#N)cc(Nc4nc(NC5CC5)c5ncc(C#N)n5n4)c3Cl)CC2)CC1(C)C [Example 124, 2-((2-chloro-5-cyano-3-(4-((1,2,2,6,6-pentamethyl-4-piperidinyl)amino)-1-piperidinyl)phenyl)amino)-4-(cyclopropylamino)imidazo [2,1-f][1,2,4]triazine-7-carbonitrile]	1.01 nM
N#Cc1cc(Nc2nc(NC3CC3)c3ncc(C#N)n3n2)c(Cl)c(C2CCN(CC(F)F)CC2)c1 [Example 212, 2-(2-chloro-5-cyano-3-(1-(2,2-difluoroethyl)piperidin-4-yl)phenylamino)-4-(cyclopropylamino)imidazo[1,2-f][1,2,4]triazine-7-carbonitrile]	0.78 nM
CCNc1nc(Nc2cc(C#N)cc(N3CC[C@@H](NC(=O)OC)[C@H](OC(=O)[C@H](C)O)C3)c2Cl)nn2c(C#N)cnc12 [Example 341, (S)-(3R,4R)-1-(2-chloro-5-cyano-3-((7-cyano-4-(ethylamino)imidazo[2,1-f][1,2,4]triazin-2-yl)amino)phenyl)-4-((methoxycarbonyl)amino)piperidin-3-yl 2-hydroxypropanoate]	1 nM
N#Cc1cc(CN2CCCC3(COC3)C2)c(Cl)c(Nc2nc(NC3CC3)c3ncc(C#N)n3n2)c1 [Example 463, 2-((3-(2-oxa-6-azaspiro[3.5]nonan-6-ylmethyl)-2-chloro-5-cyanophenyl)amino)-4-(cyclopropylamino)imidazo[2,1-f][1,2,4]triazine-7-carbonitrile]	1 nM

The remaining lines, values ahead:

IC50	Compound
2.93 nM	COC(=O)N[C@H]1CCN(c2cc(C#N)cc(Nc3nc(NC4CC4)c4ncc(C#N)n4n3)c2Cl)C[C@H]1NC1(C)COC1 [Example 754, methyl N-[(3R,4S)-1-(2-chloro-5-cyano-3-{[7-cyano-4-(cyclopropylamino)imidazo [2,1-f][1,2,4]triazin-2-yl]amino}phenyl)-3-[(3-methyloxetan-3-yl)amino]piperidin-4-yl]carbamate]
2.7 nM	CN1CCN(C(=O)C2CCN(c3cc(C(F)F)cc(Nc4nc(NC5CC5)c5ncc(C#N)n5n4)c3Cl)CC2)CC1 [Example 546, 2-((2-chloro-5-(difluoromethyl)-3-(4-(4-methylpiperazine-1-carbonyl)piperidin-1-yl)phenyl)amino)-4-(cyclopropylamino)imidazo[2,1-f][1,2,4]triazine-7-carbonitrile]
1.41 nM	C[C@@H](O)C(=O)N1CC2(CCN(c3cc(C#N)cc(Nc4nc(NC5CC5)c5ncc(C#N)n5n4)c3Cl)CC2)C1 [Example 794, (R)-2-((2-chloro-5-cyano-3-(2-(2-hydroxypropanoyl)-2,7-diazaspiro[3.5]nonan-7-yl)phenyl)amino)-4-(cyclopropylamino)imidazo[2,1-f][1,2,4]triazine-7-carbonitrile]
1.2 nM	CC(=O)N1CC(N2CCN(c3cc(C#N)cc(Nc4nc(NC5CC5)c5ncc(C#N)n5n4)c3Cl)C(=O)C2)C1 [Example 633, 2-((3-(4-(1-acetylazetidin-3-yl)-2-oxopiperazin-1-yl)-2-chloro-5-cyanophenyl)amino)-4-(cyclopropylamino)imidazo[2,1-f][1,2,4]triazine-7-carbonitrile]
24.9 nM	CCNc1nc(Nc2cc(C#N)cc(N3CC[C@@H](NC(=O)OC)[C@H](OC(=O)CC[C@H](N)C(=O)OC)C3)c2Cl)nn2c(C#N)cnc12 [Example 814, (S)-5-((3R,4R)-1-(2-chloro-5-cyano-3-((7-cyano-4-(ethylamino)imidazo[2,1-f][1,2,4]triazin-2-yl)amino)phenyl)-4-((methoxycarbonyl)amino)piperidin-3-yl) 1-methyl 2-aminopentanedioate hydrochloride]
3.9 nM	C[C@H](O)CC(=O)N1CC(N2CCN(c3cc(C#N)cc(Nc4nc(NC5CC5)c5ncc(C#N)n5n4)c3Cl)CC2)C1 [Example 514, 2-{[2-chloro-5-cyano-3-(4-{1-[(3S)-3-hydroxybutanoyl]azetidin-3-yl}piperazin-1-yl)phenyl]amino}-4-(cyclopropylamino)imidazo[2,1-f][1,2,4]triazine-7-carbonitrile]
5.05 nM	CCNc1nc(Nc2cc(C#N)cc(N3CC[C@@H](NC(=O)OC)[C@H](OC(=O)CCCN)C3)c2Cl)nn2c(C#N)cnc12 [Example 817, (3R,4R)-1-(2-chloro-5-cyano-3-((7-cyano-4-(ethylamino)imidazo[2,1-f][1,2,4]triazin-2-yl)amino)phenyl)-4-((methoxycarbonyl)amino)piperidin-3-yl 4-aminobutanonate hydrochloride]
4.1 nM	COCCOC(=O)N1CCC(N2CCN(c3cc(C#N)cc(Nc4nc(NC5CC5)c5ncc(C#N)n5n4)c3Cl)CC2)C1 (stereo not shown) [Example 579, 2-methoxyethyl 3-[4-(2-chloro-5-cyano-3-{[7-cyano-4-(cyclopropylamino)imidazo[2,1-f][1,2,4]triazin-2-yl]amino}phenyl)piperazin-1-yl]pyrrolidine-1-carboxylate]
0.98 nM	N#Cc1cc(CNC2CCOCC2)c(Cl)c(Nc2nc(NC3CC3)c3ncc(C#N)n3n2)c1 [Example 664, 2-((2-chloro-5-cyano-3-(((tetrahydro-2H-pyran-4-yl)amino)methyl)phenyl)amino)-4-(cyclopropylamino)imidazo[2,1-f][1,2,4]triazine-7-carbonitrile]
9.85 nM	N#Cc1cc(Nc2nc(NC3CC3)c3ncc(C#N)n3n2)c(Cl)c(N2CCNCC2=O)c1 [Example 628, 2-((2-chloro-5-cyano-3-(2-oxopiperazin-1-yl)phenyl)amino)-4-(cyclopropylamino)imidazo[2,1-f][1,2,4]triazine-7-carbonitrile]

— patent publication US9273057B2 (Bristol-Myers Squibb Company, priority 2012, dated 2016)
